27 compounds from patent US20240261416A1, “SYNTHESIS OF NOVEL CEREBLON E3 LIGASE LIGANDS, COMPOUNDS FORMED THEREBY, AND PHARMACEUTICAL COMPOSITIONS CONTAINING THEM” (Wisconsin Alumni Research Foundation, priority 2023, published 2024) can be followed below.

For orientation: Kd means the free concentration of one partner at which half of the binding sites on the other are occupied at equilibrium, for simple one-to-one binding.

Molecules are shown by their SMILES. Where a SMILES comes first, the peptide text is derived from it. The star is where a group is joined. Cbz = O=C(OCc1ccccc1)* Bounds are passed on as bounds.

Series [1] is described as follows: stability in human liver microsomes (hLM). Format: in vitro ADME. Particulars: after 0.5 h. A general note: Liver microsomes are a subcellular fraction often used to study metabolism.
Series [2] in a line: stability in phosphate buffer with different pHs. Format: physicochemical. To be noted: phosphate buffer pH 1.0, after 24 h. The source says: (§1) Under acidic conditions, all compounds are very stable.
Series [3] can be described thus: stability in phosphate buffer with different pHs. The series is classed as physicochemical. Particulars: for PB7.4, percent compound remaining: phosphate buffer pH 7.4, after 24 h, 37° C.
The nature of series [4]: stability in human plasma (hP). Format: in vitro ADME. Particulars: after 4.0 h.
Source text: as §1

Series [5] deals with T1, CRBN-DDB1 complex (Homo sapiens, UniProt Q96SW2). Nature of the series: fluorescence polarization (FP) assay, binding with the CRBN-DDB1 complex. Particulars: single concentration of 1 μM; for binding to CRBN-DDB1 complex in FP assay (relative binding affinity): tested three times, conditions adjusted to around 84% of maximum signal for 1 μM lenalidomide. The method, then:
All analogs were tested at a single concentration of 1 μM three times.

The subject of the next series is MV4; 11 cells. The series is described as follows: AlamarBlue cell viability. Format: cell-based, human. Particulars: 72 h. The method, then:
FIGS. 9A-9D. Functional studies of the PROTACs including anti-proliferation, apoptosis, G1 phase arrest, and reduced population in S phase. (FIG. 9A) AlamarBlue™ Cell Viability. […] (FIG. 9B) MV4; 11 cells were treated by indicated dosage of 13 for 48 h followed by flow cytofluorimetric cell cycle analysis. (FIGS. 9C and 9D) MV4; 11 cells were treated by indicated dosage of 13 for 48 h followed by flow cytofluorimetric apoptosis analyses.
AlamarBlue Cell Viability Cells were seeded in a 96-well plate at a density of 5000-10000 cells in 100 μl media per well and treated with DMSO control or test compounds at indicated doses. After incubated in CO2 incubator for 72 hours, cells were treated with 10 μL AlamarBlue solution ([…])). Fluorescence was measured in a plate reader with an excitation wavelength at 530-560 nm and emission wavelength at 590 nm. The fluorescence was normalized to the DMSO-treated cells, and the IC50 was calculated using GraphPad Prism 9 software.
In general terms: Resazurin is reduced to fluorescent resorufin, in cell work by metabolically active cells.

The target of another series is BRD4 in MV4; 11 cells (Homo sapiens, UniProt O60885). Nature of the series: Western blot of BRD4 in MV4; 11 cells (time course, dose response, mechanism). Format: cell-based. Particulars: for effect of 1 h pretreatment on BRD4 degradation induced by 13: pretreated 1 h, then 13 for 3 h. The text has this:
We next verified the mechanism of action of degrader 13 (FIGS. 8G-8H).

In series [6] the target is T1, CRBN-DDB1 complex. The series is described as follows: fluorescence polarization (FP) assay, binding with the CRBN-DDB1 complex. In general terms: Polarisation of emitted light reports the rotation of a fluorescent probe.
Where [7] appears, read: phosphate buffer pH 8.8, after 24 h.

T1 sequence (Q96SW2 whole entry): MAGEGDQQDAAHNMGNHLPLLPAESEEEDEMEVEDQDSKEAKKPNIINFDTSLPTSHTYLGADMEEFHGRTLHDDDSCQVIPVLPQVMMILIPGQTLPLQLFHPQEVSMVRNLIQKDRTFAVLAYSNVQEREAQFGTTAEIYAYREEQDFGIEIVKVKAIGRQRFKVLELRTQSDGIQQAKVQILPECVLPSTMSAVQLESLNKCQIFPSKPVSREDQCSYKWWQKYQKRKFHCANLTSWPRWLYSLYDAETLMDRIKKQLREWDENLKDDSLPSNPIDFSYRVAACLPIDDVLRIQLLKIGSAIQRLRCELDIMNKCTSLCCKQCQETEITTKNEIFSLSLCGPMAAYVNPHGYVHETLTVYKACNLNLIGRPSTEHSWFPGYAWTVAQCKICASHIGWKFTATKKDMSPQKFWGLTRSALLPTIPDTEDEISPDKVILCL
T1 sequence (Q16531 2-1140 partner limits assumed): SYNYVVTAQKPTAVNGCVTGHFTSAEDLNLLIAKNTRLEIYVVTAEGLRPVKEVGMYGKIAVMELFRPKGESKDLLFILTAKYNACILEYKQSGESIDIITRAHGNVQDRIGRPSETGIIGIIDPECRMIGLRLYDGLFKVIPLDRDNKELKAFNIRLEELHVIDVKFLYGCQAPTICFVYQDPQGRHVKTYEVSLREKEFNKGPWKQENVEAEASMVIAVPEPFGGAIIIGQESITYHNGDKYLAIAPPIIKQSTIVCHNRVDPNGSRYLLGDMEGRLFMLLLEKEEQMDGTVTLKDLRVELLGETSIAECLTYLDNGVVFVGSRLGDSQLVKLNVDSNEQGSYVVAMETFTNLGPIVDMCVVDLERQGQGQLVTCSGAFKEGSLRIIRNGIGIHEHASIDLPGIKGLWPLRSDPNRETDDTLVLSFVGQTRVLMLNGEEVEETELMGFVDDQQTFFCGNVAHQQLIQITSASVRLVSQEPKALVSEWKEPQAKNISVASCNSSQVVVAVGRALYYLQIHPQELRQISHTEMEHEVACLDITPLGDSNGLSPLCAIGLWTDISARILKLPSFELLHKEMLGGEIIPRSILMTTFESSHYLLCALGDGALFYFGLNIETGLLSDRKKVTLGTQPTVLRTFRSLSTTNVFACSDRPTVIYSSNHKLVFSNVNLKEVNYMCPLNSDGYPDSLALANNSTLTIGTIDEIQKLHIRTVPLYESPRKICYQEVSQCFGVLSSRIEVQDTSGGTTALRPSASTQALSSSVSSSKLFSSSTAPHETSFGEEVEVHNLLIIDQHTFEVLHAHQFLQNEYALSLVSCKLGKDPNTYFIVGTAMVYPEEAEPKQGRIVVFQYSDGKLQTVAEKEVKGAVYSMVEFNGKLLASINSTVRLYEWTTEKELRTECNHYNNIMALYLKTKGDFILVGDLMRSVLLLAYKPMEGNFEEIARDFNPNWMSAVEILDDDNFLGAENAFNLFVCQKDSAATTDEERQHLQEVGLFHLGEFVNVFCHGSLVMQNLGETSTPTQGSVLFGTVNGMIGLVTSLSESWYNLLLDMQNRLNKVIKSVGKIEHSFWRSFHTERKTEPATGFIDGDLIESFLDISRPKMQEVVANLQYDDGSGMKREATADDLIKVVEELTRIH

For the compound `CC(=O)NCCC#Cc1cccc(N2CCC(=O)NC2=O)c1C` [Compound 11, N-(4-(3-(2,4-dioxotetrahydropyrimidin-1(2H)-yl)-2-methylphenyl)but-3-yn-1-yl)acetamide], the “hLM, percent compound remaining” value in series [1] came out at 90%. Besides, the “PB1.0, percent compound remaining” value in series [2] is recorded as above 99%. Besides, the “PB7.4, percent compound remaining” value in series [3] is reported as above 99%. Further, the “PB8.8, percent compound remaining” value in series [3] (setting [7]) turned out to be 90%.

With `CCNC(=O)COc1cccc(N2CCC(=O)NC2=O)c1C` [Compound 10, 2-(3-(2,4-dioxotetrahydropyrimidin-1(2H)-yl)-2-methylphenoxy)-N-ethylacetamide], the “hLM, percent compound remaining” value in series [1] is reported as 100%. Also, the “PB1.0, percent compound remaining” value in series [2] is recorded as above 99%. For the same compound, the “PB7.4, percent compound remaining” value in series [3] is listed as above 99%. The “PB8.8, percent compound remaining” value in series [3] (setting [7]) came to 95%.

Regarding `Nc1cccc2c1CN(C1CCC(=O)NC1=O)C2=O` (centres unmarked) [Lenalidomide, lenalidomide, reference compound], the “hLM, percent compound remaining” value in series [1] is on record as 89%. Moreover, the “hP, percent compound remaining” value in series [4] came out at 62%. The “PB1.0, percent compound remaining” value in series [2] is on record as above 99%. Moreover, in series [3], the “PB7.4, percent compound remaining” value is on record as 39%. In addition, the “PB8.8, percent compound remaining” value in series [3] (phosphate buffer pH 8.8, after 2 h) is reported as 20%; in series [3] (setting [7]) it was 0%.

On to `O=C1CCN(c2ccccc2Cl)C(=O)N1` [Compound 3E, 1-(2-chlorophenyl)dihydropyrimidine-2,4(1H,3H)-dione], for which, at CRBN-DDB1 complex [5], the “binding to CRBN-DDB1 complex in FP assay (relative binding affinity)” value (“binding … (relative binding affinity)” below) is listed as 36%.

Turning to `CC(C)(C)OC(=O)NCC#Cc1cccc(N2CCC(=O)NC2=O)c1` [Compound 4F, tert-butyl (3-(3-(2,4-dioxotetrahydropyrimidin-1(2H)-yl)phenyl)prop-2-yn-1-yl)carbamate], the “binding … (relative binding affinity)” value at CRBN-DDB1 complex [5] turned out to be 56%.

On to `O=C1CCN(c2ccc(O)cc2)C(=O)N1` [Compound 5A, 1-(4-hydroxyphenyl)dihydropyrimidine-2,4(1H,3H)-dione], for which, at CRBN-DDB1 complex [5], the “binding to CRBN-DDB1 complex in FP assay, in words” value (shortened to “binding … in words”) is “did not improve the binding as much as those on the meta-positions” and the “binding … (relative binding affinity)” value came to 38%.

In the case of `Cc1c(Oc2ccc(C=O)cc2)cccc1N1CCC(=O)NC1=O` [Compound 15C], at CRBN-DDB1 complex [5], the “binding … (relative binding affinity)” value was found to be 21%.

For the compound `Cc1sc2c(c1C)C(c1ccc(Cl)cc1)=N[C@@H](CC(=O)OC(C)(C)C)c1nnc(C)n1-2` [JQ1, reference compound], the “anti-proliferation activity, in words” value in the series with MV4; 11 cells is “weaker anti-proliferation activity than 13, but higher activity than compound 13NT”.

On to `Cc1sc2c(c1C)C(c1ccc(Cl)cc1)=N[C@@H](CC(=O)NC1CCN(C(=O)COc3cccc(N4CCC(=O)N(C)C4=O)c3C)CC1)c1nnc(C)n1-2` [Compound 13NT, (S)-2-(4-(4-chlorophenyl)-2,3,9-trimethyl-6H-thieno[3,2-f][1,2,4]triazolo[4,3-a][1,4]diazepin-6-yl)-N-(1-(2-(2-methyl-3-(3-methyl-2,4-dioxotetrahydropyrimidin-1(2H)-yl)phenoxy)acetyl)piperidin-4-yl)acetamide], for which, on BRD4 in MV4; 11 cells (several concentrations, 24 h), the “BRD4 degradation activity, in words” value is “No degradation activity of BRD4 was observed”.

Consider `Cc1ccc(Oc2ccccc2)cc1N1CCC(=O)NC1=O` [Compound 15D], for which, on CRBN-DDB1 complex [5], the “binding … in words” value is given as “slightly weaker than 15A”.

Take `Cc1ccc(Nc2ccccc2)cc1N1CCC(=O)NC1=O` [Compound 16B]: the “binding … in words” value on CRBN-DDB1 complex [5] was “remain relatively high binding affinity”.

`Cc1c(OCC(=O)N2CCCCC2)cccc1N1CCC(=O)NC1=O` [Compound 9, 1-(2-methyl-3-(2-oxo-2-(piperidin-1-yl)ethoxy)phenyl)dihydropyrimidine-2,4(1H,3H)-dione]: in series [1], the “hLM, percent compound remaining” value worked out at 85%. Moreover, the “PB1.0, percent compound remaining” value in series [2] was above 99%. The “effect of 1 h pretreatment on BRD4 degradation induced by 13” value (“effect of 1 h pretreatment” below) on BRD4 in MV4; 11 cells is recorded as “abolished the BRD4 degradation induced by 13”. The “anti-proliferation activity, in words” value in the series with MV4; 11 cells was “did not show any anti-proliferation activity at up to 100 μM”. Besides, in series [3], the “PB7.4, percent compound remaining” value is above 99%. In series [3] (setting [7]), the “PB8.8, percent compound remaining” value came to 95%.

As for `CCc1ccccc1N1CCC(=O)NC1=O` [Compound 3D, 1-(2-ethylphenyl)dihydropyrimidine-2,4(1H,3H)-dione], the “binding … (relative binding affinity)” value at CRBN-DDB1 complex [5] is recorded as 29%.

On to `COc1cccc(N2CCC(=O)NC2=O)c1` [Compound 4C, 1-(3-methoxyphenyl)dihydropyrimidine-2,4(1H,3H)-dione], for which the “binding … (relative binding affinity)” value on CRBN-DDB1 complex [5] worked out at 33%.

For `Cc1ccc(O)cc1N1CCC(=O)NC1=O` [Compound 7A, 1-(5-hydroxy-2-methylphenyl)dihydropyrimidine-2,4(1H,3H)-dione], on CRBN-DDB1 complex [5], the “binding … (relative binding affinity)” value is 81%.

As to `NS(=O)(=O)OC[C@@H]1C[C@@H](n2ccc3c(N[C@H]4CCc5ccccc54)ncnc32)C[C@@H]1O` [MLN4924, reference compound], on BRD4 in MV4; 11 cells, the “effect of 1 h pretreatment” value is given as “abolished the BRD4 degradation induced by 13”.

For the compound `Cc1ccc(Oc2ccc(C=O)cc2)cc1N1CCC(=O)NC1=O` [Compound 15A], the “binding … (relative binding affinity)” value on CRBN-DDB1 complex [5] was found to be 70%. Besides, the dissociation constant Kd at CRBN-DDB1 complex [6] (FP assay) stood at 170 nM.

For the compound `CC(C)(C)OC(=O)COc1cccc(N2CCC(=O)NC2=O)c1` [Compound 4K, tert-butyl 2-(3-(2,4-dioxotetrahydropyrimidin-1(2H)-yl)phenoxy)acetate], the “binding … (relative binding affinity)” value at CRBN-DDB1 complex [5] came to 44%.

As for `Cc1ccccc1N1CCC(=O)NC1=O` [Compound 3B, 1-(o-tolyl)dihydropyrimidine-2,4(1H,3H)-dione], at CRBN-DDB1 complex [5], the “binding … (relative binding affinity)” value stood at 35%. In addition, the “increase of affinity by ortho-Me relative to parent PDHU 2” value at CRBN-DDB1 complex [6] (FP assay Kd) is recorded as “about 2.5 times”.

Turning to `COC(=O)c1cccc(Nc2ccc(C)c(N3CCC(=O)NC3=O)c2)c1` [Compound 16A], on CRBN-DDB1 complex [5], the “binding … in words” value is “remain relatively high binding affinity”.

With `CC(C)C[C@@H](C=O)NC(=O)[C@H](CC(C)C)NC(=O)[C@H](CC(C)C)NC(=O)OCc1ccccc1` [MG132, reference compound] (Cbz-Leu-Leu-Leu-aldehyde), at BRD4 in MV4; 11 cells, the “effect of 1 h pretreatment” value is “abolished the BRD4 degradation induced by 13”.

Regarding `CC(C)(C)OC(=O)COc1ccc(N2CCC(=O)NC2=O)cc1` [Compound 5K, tert-butyl 2-(4-(2,4-dioxotetrahydropyrimidin-1(2H)-yl)phenoxy)acetate], the “binding … in words” value at CRBN-DDB1 complex [5] is “did not improve the binding as much as those on the meta-positions”.

Consider `O=C1CCN(c2ccccc2O)C(=O)N1` [Compound 3A, 1-(2-hydroxyphenyl)dihydropyrimidine-2,4(1H,3H)-dione], for which the “binding … in words” value on CRBN-DDB1 complex [5] is given as “almost completely lost the binding affinity”.

For the compound `O=Cc1ccc(Oc2cccc(N3CCC(=O)NC3=O)c2)cc1` [Compound 15B], the “binding … (relative binding affinity)” value on CRBN-DDB1 complex [5] is reported as 33%.

For `COc1ccccc1N1CCC(=O)NC1=O` [Compound 3C, 1-(2-methoxyphenyl)dihydropyrimidine-2,4(1H,3H)-dione], the “binding … in words” value at CRBN-DDB1 complex [5] is “decreased the binding”.

Regarding `O=C1CCN(c2cccc(O)c2)C(=O)N1` [Compound 4A, 1-(3-hydroxyphenyl)dihydropyrimidine-2,4(1H,3H)-dione], the “binding … (relative binding affinity)” value at CRBN-DDB1 complex [5] came to 57%.

Take `Cc1c(C#CCNC(=O)OC(C)(C)C)cccc1N1CCC(=O)NC1=O` [Compound 6F, tert-butyl (3-(3-(2,4-dioxotetrahydropyrimidin-1(2H)-yl)-2-methylphenyl)prop-2-yn-1-yl)carbamate]: the “hLM, percent compound remaining” value in series [1] came to 87%. Also, the “hP, percent compound remaining” value in series [4] is 97%. Further, the “PB1.0, percent compound remaining” value in series [2] is above 99%. For the same compound, the “PB7.4, percent compound remaining” value in series [3] is reported as above 99%. Further, the “PB8.8, percent compound remaining” value in series [3] (setting [7]) was 93%.
